This is an account of results in patent US11980616B2, “Treating liver disease by selectively eliminating senescent cells” (Buck Institute for Research on Aging, priority 2014, dated 2024).

Data set [1] has as its system senescent IMR90 cells. Description: CellTiter-Glo cell viability assay, senescent IMR90. It is filed as cell-based, human. The method, then:
(§1) To determine whether ABT-263 is selectively toxic to senescent cells compared to non-senescent cells, a cell viability assay was used to assess cell survival following treatment with ABT-263. IMR90 cells (human primary lung fibroblasts (IMR90) (IMR-90 (ATCC® CCL-186™, Manassas, Virginia) were seeded in six well plates, and cells were induced to senescence with 10 Gy of ionizing radiation (IR) (Day 0). The media was refreshed every 3 days. The senescent phenotype is allowed to develop for 7 days at which point a cell count was made to determine the baseline number of cells followed by seeding into 96-well plates. On day 8, the senescent cells (irradiated) and the non-senescent cells (the non-radiated cells), were exposed to serial dilutions of ABT-263 for a period of 3 days. ABT-263 concentrations ranged from 0.5 nM to 3 μM. Each condition was seeded in triplicate.
(§2) After three days of treatment (Day 11), cells were assayed for cell survival using the commercially available CellTiter-Glo® (CTG) Luminescent Cell Viability Assay (Promega Corporation, Madison, Wisconsin). The assay determines the number of viable cells in culture based on the quantitation of ATP present which is an indicator of metabolically active cells.
The experiments performed for assessing the effect of these other Bcl-2 inhibitors were performed essentially as described in Example 7. Cells were exposed to ABT-199 at serial dilution concentrations ranging from 15 nM to 100 μM (FIGS. 26 and 27). Cells were exposed to Obatoclax at concentrations ranging from 1.4 nM to 9 μM (FIG. 28).
IMR90 cells were induced to senescence by irradiation as described in Example 7. The irradiated IMR90 cells and non-senescent IMR90 cells were then exposed to a compound called ML214 that is a Bcl-2A1 specific inhibitor.
The effect of ABT-263 in combination with the Akt inhibitor MK-2206 was tested for selective toxicity of senescent cells compared to non-senescent cells in IMR90 cells. The methods of Example 7 were repeated except that cell cultures were exposed to 10 nM MK-2206 (Selleckem, Cat #S1078) in addition to serial dilutions of ABT-263.
On the technique in general: Cellular ATP, detected with luciferase, serves as a proxy for viable cell number.

Data set [2] relates to INK-ATTAC transgenic mice. Briefly: Cardiac stress test (isoproterenol) in aged INK-ATTAC transgenic mice. It is filed as in vivo, mouse. The method, then:
To study the impact of senescent cell clearance on health and lifespan, cohorts of INK-ATTAC transgenic mice on FVB×129Sv/E×C57BL/6 mixed or C57BL/6 pure genetic backgrounds were established. At 12 months age, one half of each cohort was injected three times/week with AP20187 to induce apoptosis of p16-positive senescent cells (0.2 mg/kg and 2 mg/kg AP20187 for the mixed and the pure C57BL/6 cohorts, respectively), while the other half of each cohort received vehicle. At 18 months, subsets of male and female mice from each cohort were subjected to a cardiac stress test, in which mice were injected with a lethal dose of isoproterenol (680 mg/kg) and the time to cardiac arrest was recorded.
Cardio-protective signaling pathways are known to provide tolerance to metabolic stresses such as ischemia and hypoxia decline (Granfeldt et al., 2009, Cardiovasc. Res. 83:234-246). However, cardio-protective signaling deteriorates with aging, thus decreasing the functional and adaptive reserve capacity of the heart (Ogawa et al., 1992, Circulation 86:494-503; Wiebe et al., 1998, Clin. J. Sport Med. 8:272-279). ATP-dependent K channels (KATP) play a central role in cardio-protective signaling (Gross and Auchampach, 1992, Cardiovasc. Res. 26:1011-1016). These KATP channels are composed of the pore-forming subunit Kir6.2/Kir6.1, the regulatory subunit Sur2a, and additional accessory proteins. KATP channels are thought to decline with aging due to decreased expression of Sur2a (Du et al., 2006, FASEB J. 20:1131-1141; Jovanovic and Jovanovic, 2009, Curr. Opin. Pharmacol. 9:189-193; Ranki et al., 2002, Mech. Ageing Dev. 123:695-705). […] Thus, the contribution of senescent cells to the age-related decline in Sur2a expression was examined in 18 month old AP20187-treated and vehicle treated mice from subjected to the cardiac stress test previously described. […] Taken together, these experiments indicate that the presence of senescent cells with aging negatively impacts KATP channel function, and senescent cell clearance is an effective therapy to counteract this deterioration.

Data set [3] concerns 3MR or INK-ATTAC mice exposed to cigarette smoke. Briefly: Chronic cigarette smoke exposure model (COPD). The data set is classed as in vivo, mouse. As to conditions: after 2 months of cigarette smoke exposure; vs untreated controls. How it is done:
In a second animal model for pulmonary diseases (e.g., COPD), mice were exposed to cigarette smoke. The effect of a senolytic agent on the mice exposed to smoke is assessed by senescent cell clearance, lung function, and histopathology.
Six week-old 3MR (n=35) or INK-ATTAC (n=35) mice were chronically exposed to cigarette smoke generated from a Teague TE-10 system, an automatically-controlled cigarette smoking machine that produces a combination of side-stream and mainstream cigarette smoke in a chamber, which is transported to a collecting and mixing chamber where varying amounts of air is mixed with the smoke mixture. The COPD protocol was adapted from the COPD core facility at Johns Hopkins University (at Internet site web.jhu.edu/Biswal/exposure_core/copd.html#Cigarette_Smoke) (Rangasamy et al., 2004, J. Clin. Invest. 114:1248-1259; Yao et al., 2012, J. Clin. Invest. 122:2032-2045). Mice received a total of 6 hours of cigarette smoke exposure per day, 5 days a week for 6 months. Each lighted cigarette (3R4F research cigarettes containing 10.9 mg of total particulate matter (TPM), 9.4 mg of tar, and 0.726 mg of nicotine, and 11.9 mg carbon monoxide per cigarette [University of Kentucky, Lexington, KY]) was puffed for 2 seconds and once every minute for a total of 8 puffs, with the flow rate of 1.05 L/min, to provide a standard puff of 35 cm^3. The smoke machine was adjusted to produce a mixture of side stream smoke (89%) and mainstream smoke (11%) by smoldering 2 cigarettes at one time. The smoke chamber atmosphere was monitored for total suspended particulates (80-120 mg/m^3) and carbon monoxide (350 ppm). Beginning at day 7, (10) INK-ATTAC and (10) 3MR mice were treated with AP20187 (3× per week) or gancyclovir (5 consecutive days of treatment followed by 16 days off drug, repeated until the end of the experiment), respectively. An equal number of mice received the corresponding vehicle. The remaining […] (15 INK-ATTAC and 15 3MR) were evenly split with 5 of each genetically modified strain placed into three different treatment groups. One group (n=10) received Nutlin-3A (25 mg/kg dissolved in 10% DMSO/3% Tween-20 in PBS, treated 14 days consecutively followed by 14 days off drug, repeated until the end of the experiment). […]
After two months of cigarette smoke exposure, lung function was assessed by monitoring oxygen saturation using the MouseSTAT PhysioSuite pulse oximeter (Kent Scientific). […] Mice were monitored for 30 seconds and the average peripheral capillary oxygen saturation (SpO2) measurement over this duration was calculated.

In data set [4] the test system is non-senescent IMR90 cells. Briefly: CellTiter-Glo cell viability assay, non-senescent IMR90. The data set is classed as cell-based. As to conditions: Homo sapiens, IMR-90, 72 h; non-senescent IMR90, 3 days. The method, then: as §1, §2
The experiments performed for assessing the effect of these other Bcl-2 inhibitors were performed essentially as described in Example 7. […]

Data set [5] concerns p16-3MR animals. Briefly: Senescence induced by chemotherapeutic drugs in p16-3MR animals (luminescence). The data set is classed as in vivo, mouse. The settings on record: p<0.05; pomalidomide 5 mg/kg, lenalidomide 50 mg/kg 7 daily injections; doxorubicin 10 mg/kg 2-4 injections. How it is done:
To examine senescence induced by different chemotherapeutic drugs, groups of p16-3MR animals (n=4) were treated with thalidomide (100 mg/kg; 7 daily injections); romidepsin (1 mg/kg; 3 injections); pomalidomide (5 mg/kg; 7 daily injections); lenalidomide (50 mg/kg; 7 daily injections); 5-azacytidine (5 mg/kg; 3 injections) and compared with doxorubicin (10 mg/kg, 2-4 injections over 7 days).

Data set [6] relates to myocardial damage in patients. As to conditions: drug product inserts; cited from earlier work.
Data set [7] deals with p16-3MR transgenic mice. Briefly: Paclitaxel-induced senescence in p16-3MR mice. The data set is classed as in vivo, mouse. The settings on record: 20 mg/kg three times every two days. How it is done:
Paclitaxel induces senescence and SASP in p16-3MR transgenic mice. Groups of mice (n=4) were treated three times every two days with 20 mg/kg paclitaxel or vehicle. […] The level of mRNA in skin was determined for each of the target genes: p16, 3MR transgene, and IL-6.

On to `CC1(C)CCC(CN2CCN(c3ccc(C(=O)NS(=O)(=O)c4ccc(NCC5CCOCC5)c([N+](=O)[O-])c4)c(Oc4cnc5[nH]ccc5c4)c3)CC2)=C(c2ccc(Cl)cc2)C1` [ABT-199], for which the “Selective targeting (killing) of senescent cells over non-senescent cells” value in data set [1] (IMR90) is recorded as “inability”.
On to `CC[C@H](C(=O)N1CCCC[C@H]1C(=O)O[C@H](CCc1ccc(OC)c(OC)c1)c1cccc(OCC(=O)NCC(CNC(=O)COc2cccc([C@@H](CCc3ccc(OC)c(OC)c3)OC(=O)[C@@H]3CCCCN3C(=O)[C@@H](CC)c3cc(OC)c(OC)c(OC)c3)c2)CN(C)C)c1)c1cc(OC)c(OC)c(OC)c1` [AP20187], for which the “Time to cardiac arrest after lethal isoproterenol” value in data set [2] (0.2 or 2 mg/kg three times/week from 12 to 18 months, isoproterenol 680 mg/kg) is listed as “sustained youthful cardio-protection”. In addition, in data set [2] (18-month-old female mice), the Sur2a expression result was “sustained Sur2a expression”. Further, the Median lifespan result in data set [2] (INK-ATTAC mice) is “median lifespan extension”. Further, in data set [3], the SpO2 levels result is recorded as “statistically significant increases”.
In general, IC50 refers to the concentration at which inhibition is half-maximal. Take `COC1=CC(c2cc3ccccc3[nH]2)=N/C1=C\c1[nH]c(C)cc1C` [Obatoclax]: the IC50 in data set [4] was found to be 75 nM; in data set [1] (Homo sapiens, IMR-90, 72 h, senescent IMR90, 3 days), 125 nM.
In the case of `COc1cccc2c1C(=O)c1c(O)c3c(c(O)c1C2=O)C[C@@](O)(C(=O)CO)C[C@@H]3O[C@H]1C[C@H](N)[C@H](O)[C@H](C)O1` [doxorubicin], the “Level of senescent cells (luminescence)” value in data set [5] was “significant levels of senescent cells”. For the same compound, in data set [6], the “Total lifetime dose above which myocardial damage may lead to congestive heart failure” value is “exceeds 550 mg/m^2”.
Regarding `Nc1cccc2c1CN(C1CCC(=O)NC1=O)C2=O` (stereo not drawn) [lenalidomide], in data set [5], the “Level of senescent cells (luminescence)” value is “significant levels of senescent cells”.
As for `Nc1cccc2c1C(=O)N(C1CCC(=O)NC1=O)C2=O` (stereo not drawn) [omalidomide], in data set [5], the “Level of senescent cells (luminescence)” value was “significant levels of senescent cells”.
On to `CC(=O)O[C@H]1C(=O)[C@@]2(C)[C@H]([C@H](OC(=O)c3ccccc3)[C@]3(O)C[C@H](OC(=O)[C@H](O)[C@@H](NC(=O)c4ccccc4)c4ccccc4)C(C)=C1C3(C)C)[C@]1(OC(C)=O)CO[C@@H]1C[C@@H]2O` [paclitaxel], for which the “Senescence shown by luminescence” value in data set [7] is “Senescence was observed”. In data set [7] (vs vehicle), the “3MR transgene mRNA in skin” value is “increased”, the “IL-6 mRNA in skin” value is “increased” and the “p16 mRNA in skin” value is recorded as “increased”.
